Measurements reported in patent publication US20110319392A1, “Thiazole Sulfonamide And Oxazole Sulfonamide Kinase Inhibitors” (priority 2009, published 2011).

Columns and labels:
SK-MEL-28 tumor cells = assay: Cell growth inhibition assay (CellTiter-Glo), SK-MEL-28; type: cell-based, Human; conditions: Homo sapiens, SK-MEL-28, 72 h; 3 days incubation
Protocol: (§1) Human breast tumor cells (BT474) were cultured in RPMI (Mediatech […]), containing 10% FBS (JRH Biosciences 12176) and 1% penicillin-streptomycin (Invitrogen 15140). Human head and neck tumor cells (HN5) were cultured in high glucose DMEM (Mediatech 50-013-PB) containing 10% FBS and 1% penicillin-streptomycin. Human colon tumor cells (Colo205) were cultured in RPMI (Mediatech 50-020-PB) containing 10% FBS and 1% penicillin-streptomycin. Human melanoma cancer cells (SK-MEL-28) were cultured in EMEM with nonessential amino acids (Mediatech 50-011-PB) containing 10% FBS, 1% sodium pyruvate (JT Baker 3354-04), and 1% penicillin-streptomycin. Human melanoma cancer cells (A375P F11s) were cultured in RPMI (Mediatech 50-020-PB) containing 10% FBS, 1% sodium pyruvate, and 1% penicillin-streptomycin. Human colon cancer cells (HT-29) were cultured in high glucose DMEM (Mediatech 50-013-PB) containing 10% FBS and 1% penicillin-streptomycin. Human melanoma cancer cells (SK-MEL-3) were cultured in McCoy's 5A (50-025-PB) containing 15% FBS, and 1% penicillin-streptomycin. All cell lines were maintained at 37° C. in a humidified 5% CO2, 95% air incubator. Cells were harvested using trypsin/EDTA (Invitrogen 25200), counted using a haemocytometer, and plated. For 96-well assays (using white full-area NUNC plates cat. #136102), cells were plated in 105 μL at the following densities (cells/well): HNS, 500; Colo 205, 500; SK-MEL-28, 500; A375P F11s, 500; HT-29, 500; SK-MEL-3, 500; and BT474, 3000. For 384-well assays (white full-area NUNC plates, cat. #781080), cells were plated in 48 μL at the following densities (cells/well): HNS, 500; Colo205, 500; SK-MEL-28, 500; A375P F11s, 500; HT-29, 500; SK-MEL-3, 500; and BT474, 2000.
(§2) The next day, compounds were diluted as follow: For 96-well assays, 13.5 μL of compound in DMSO were diluted using nine (9) serial 1:3 dilutions of 4.5 μL in 9 of DMSO. Medium (270 μL/well of RPMI with 10% FBS and 1% penicillin-streptomycin) was added to the plates. Aliquots (7 μL) were added to cells in the final assay giving a final DMSO concentration of 0.2%. For 384-well assays, 15 μL of compound in DMSO were diluted using nine (9) serial 1:3 dilutions of 5 μL in 10 μL of DMSO, followed by a further dilution of 5 μL of compound with 95 μL of medium, of which 2 μL were added to cells in the final assay giving a final DMSO concentration of 0.2%. Cells were incubated at 37° C., 5% CO2 for 3 days.
(§3) Total ATP was measured (as a surrogate estimate of cell number) using CellTiter-Glo® reagent (Promega G7571). Briefly, plates were removed from the incubator and allowed to equilibrate to room temperature for 30 minutes. CellTiter-Glo® (25 μL or 55 μL for 384-well or 96-well assays, respectively) reagent was added to each well and plates were shaken on an orbital plate shaker for 2 minutes. Plates were incubated without shaking for a further 30 minutes and read on an LJL Analyst GT reader in luminometer mode with an integration time of 0.5 seconds per well. Percent inhibition of cell growth was calculated relative to DMSO vehicle-treated control wells. Concentration of compound required to give 50% inhibition of vehicle-treated control cell growth (IC50) was interpolated using a 4-parameter fit for determining IC50 using the following equation: Y=A +((B−A)/(1+((C/X)̂D))) where […].

Colo205 tumor cells = assay: Cell growth inhibition assay (CellTiter-Glo), Colo205; type: cell-based, Human; conditions: Homo sapiens, COLO 205, 72 h; 3 days incubation
Protocol: as §1, §2, §3

B-Raf = B-Raf (Homo sapiens, UniProt P15056); assay: B-Raf Accelerated MEK ATPase assay (BRAMA), Method A or B; type: biochemical; conditions: Method B: final MEK 150 nM, single end point read
Protocol: Compounds of the present invention were tested for B-Raf protein serine kinase inhibitory activity in a B-Raf Accelerated MEK ATPase assay (BRAMA). The BRAMA assay is a high sensitivity assay which measures an intrinsic MEK-mediated ATP hydrolysis uncoupled from downstream ERK phosphorylation by coupling the formation of ADP to NADH oxidation through the enzymes pyruvate kinase and lactate dehydrogenase. When ADP production is initiated by addition of catalytic amounts of an activated Raf enzyme and non-phosphorylated MEK, one observes robust ADP production concomitant with Raf-mediated phosphorylation of MEK.
Method A: Specific details of the assay are disclosed in: C. Rominger, M. Schaber, E. May. Assay for B-Raf Activity Based on Intrinsic MEK ATPase Activity. Statutory Invention Registration 11/084,993 (March, 2005). Method B: The method is the same as method A, but includes the following changes: 1) the assay was performed with a final MEK concentration of 150 nM and 2) the assay was read as single end point instead of a kinetic read.

ErbB2 = target: T1, ErbB2 (Homo sapiens, UniProt P04626); assay: ErbB-2 substrate phosphorylation assay (HTRF); type: biochemical
T1 construct: made in house; host or cells: baculovirus expression system
Protocol: (§4) Compounds of the present invention were tested for EGFR and ErbB-2 protein tyrosine kinase inhibitory activity in substrate phosphorylation assays using enzymes purified from a baculovirus expression system. Reagent production was conducted essentially as described in Brignola, P. S., et al, (2002) J. Biol. Chem. 277(2):1576-1585.
(§5) The method measures the ability of the isolated enzyme to catalyse the transfer of the gamma-phosphate from ATP onto the tyrosine residue of a biotinylated synthetic peptide referenced “Peptide C” in Brignola, P. S., et al, (2002) J. Biol. Chem. 277(2):1576-1585. The extent of tyrosine phosphorylation was measured using an anti-phosphotyrosine antibody, and quantified by homogenous time-resolved fluorescence (HTRF).
(§6) Reactions were performed in black 384-well polystyrene flat-bottom plates in a final volume of 20 μL. Assays were performed by adding 10 μL of each of the following solutions, Substrate Mix and Enzyme Mix: The Substrate Mix contained 100 mM 3-[N-morpholino]propanesulfonic acid (MOPS) (pH 7.5), 2 mM MnCl2, 20 μM ATP, 0.01% Tween-20, 0.1 mg/mL (BSA), 0.8 uM peptide substrate, and 1 mM dithiothreitol. The Enzyme Mix contained 100 mM MOPS (pH7.5); 0.01% Tween-20; 0.1 mg/mL BSA, and either 0.8 nM EGFR, 10 nM ErbB2, or 1 nM ErbB4. The Enzyme Mix was added to the compound plates and the plates were incubated at 20° C. for 1 hr. The reactions were then started by adding the Substrate Mix.
(§7) After initiating the reaction with the method described above, the reactions were allowed to proceed for 90 minutes at 20° C. The reactions were then terminated by the addition of 20 μL 100 mM EDTA to each well. 40 μL/well of HTRF detection mix were added to the assay plates. The final concentrations of the detection reagents were: 100 mM HEPES (pH7.5), 0.1 mg/mL BSA, 15 nM streptavidin-labeled allophycocyanin (PerkinElmer), and 1 nM europium-labeled anti-phosphotyrosine antibody (Perkin Elmer). Assay plates were left unsealed and were counted in a Wallac Multilabel Counter 1420 (PerkinElmer).
(§8) Compounds under analysis were dissolved in dimethylsulfoxide (DMSO) to 1.0 mM and serially diluted 1 to 3 with DMSO through twelve dilutions. 1 μL of each concentration was transferred to the corresponding well of an assay plate. This creates a final compound concentration range from 0.00027 to 47.6 μM.
(§9) The data for dose responses were plotted as % Inhibition calculated with the data reduction formula 100*(1-(U1−C2)/(C1−C2)) versus concentration of compound where U1 is the unknown value, C1 is the average control value obtained for 4.76% DMSO, and C2 is the average control value obtained for 0.035 M EDTA. Data were fitted with a curve described by:
(§10) where Vmax is the upper asymptote, Y2 is the Y intercept, and K is the IC50. The results for each compound were recorded as pIC50s, calculated as follows: […]

EGFR = target: T2, EGFR (Homo sapiens, UniProt P00533); assay: EGFR substrate phosphorylation assay (HTRF); type: biochemical
T2 construct: made in house; host or cells: baculovirus expression system
Protocol: as §4, §5, §6, §7, §8, §9, §10

T2 sequence (P00533 25-1210): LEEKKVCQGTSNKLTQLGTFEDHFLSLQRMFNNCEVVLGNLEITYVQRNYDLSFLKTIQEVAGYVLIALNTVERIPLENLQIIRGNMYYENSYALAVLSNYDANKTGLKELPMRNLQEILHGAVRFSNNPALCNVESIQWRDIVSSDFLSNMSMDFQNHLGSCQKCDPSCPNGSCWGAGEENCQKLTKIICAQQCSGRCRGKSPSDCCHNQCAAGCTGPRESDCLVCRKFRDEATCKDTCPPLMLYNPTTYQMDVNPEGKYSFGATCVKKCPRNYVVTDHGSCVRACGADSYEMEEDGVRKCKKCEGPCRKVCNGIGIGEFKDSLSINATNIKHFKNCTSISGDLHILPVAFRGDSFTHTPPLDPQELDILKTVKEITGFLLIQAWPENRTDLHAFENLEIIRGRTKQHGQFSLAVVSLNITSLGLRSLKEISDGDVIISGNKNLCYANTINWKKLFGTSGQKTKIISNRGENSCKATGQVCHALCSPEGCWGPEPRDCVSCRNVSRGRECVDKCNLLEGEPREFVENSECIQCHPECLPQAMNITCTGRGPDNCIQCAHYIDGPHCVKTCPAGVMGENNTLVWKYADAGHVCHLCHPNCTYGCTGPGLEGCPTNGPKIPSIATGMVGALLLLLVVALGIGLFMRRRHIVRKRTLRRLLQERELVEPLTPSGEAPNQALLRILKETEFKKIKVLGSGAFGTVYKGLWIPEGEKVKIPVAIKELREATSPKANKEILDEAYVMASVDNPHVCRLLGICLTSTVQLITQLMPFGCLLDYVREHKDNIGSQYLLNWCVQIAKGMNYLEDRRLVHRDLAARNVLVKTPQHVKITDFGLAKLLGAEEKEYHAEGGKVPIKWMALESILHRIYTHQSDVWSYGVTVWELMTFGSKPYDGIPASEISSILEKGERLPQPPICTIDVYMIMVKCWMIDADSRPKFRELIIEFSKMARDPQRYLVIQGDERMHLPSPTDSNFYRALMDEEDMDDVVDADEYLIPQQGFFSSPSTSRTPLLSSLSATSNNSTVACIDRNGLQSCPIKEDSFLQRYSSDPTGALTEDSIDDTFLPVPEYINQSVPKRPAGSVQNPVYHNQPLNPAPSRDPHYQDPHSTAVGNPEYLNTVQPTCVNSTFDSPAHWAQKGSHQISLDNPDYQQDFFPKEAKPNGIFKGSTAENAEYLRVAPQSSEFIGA
Sequence of B-Raf (P15056 whole entry): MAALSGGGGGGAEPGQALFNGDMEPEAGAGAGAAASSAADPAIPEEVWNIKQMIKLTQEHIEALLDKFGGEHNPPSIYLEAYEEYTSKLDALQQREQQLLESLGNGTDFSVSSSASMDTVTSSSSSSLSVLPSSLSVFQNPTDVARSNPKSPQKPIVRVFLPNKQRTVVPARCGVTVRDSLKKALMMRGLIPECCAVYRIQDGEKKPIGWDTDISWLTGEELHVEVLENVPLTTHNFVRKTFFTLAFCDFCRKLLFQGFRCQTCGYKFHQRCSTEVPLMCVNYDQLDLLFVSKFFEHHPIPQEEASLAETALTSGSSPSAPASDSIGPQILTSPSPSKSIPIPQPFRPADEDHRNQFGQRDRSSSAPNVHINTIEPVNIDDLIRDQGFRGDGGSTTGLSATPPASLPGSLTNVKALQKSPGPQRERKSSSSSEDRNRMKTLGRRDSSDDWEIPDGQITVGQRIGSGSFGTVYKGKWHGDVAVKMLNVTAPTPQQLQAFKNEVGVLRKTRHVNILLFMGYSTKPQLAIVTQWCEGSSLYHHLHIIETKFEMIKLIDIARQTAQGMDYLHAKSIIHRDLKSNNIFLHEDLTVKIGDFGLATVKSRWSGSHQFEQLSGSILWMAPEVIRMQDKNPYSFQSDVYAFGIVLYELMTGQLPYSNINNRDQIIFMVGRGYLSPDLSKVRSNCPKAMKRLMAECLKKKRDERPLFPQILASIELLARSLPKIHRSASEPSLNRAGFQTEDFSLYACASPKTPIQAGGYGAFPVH
T1 sequence (P04626 23-1255): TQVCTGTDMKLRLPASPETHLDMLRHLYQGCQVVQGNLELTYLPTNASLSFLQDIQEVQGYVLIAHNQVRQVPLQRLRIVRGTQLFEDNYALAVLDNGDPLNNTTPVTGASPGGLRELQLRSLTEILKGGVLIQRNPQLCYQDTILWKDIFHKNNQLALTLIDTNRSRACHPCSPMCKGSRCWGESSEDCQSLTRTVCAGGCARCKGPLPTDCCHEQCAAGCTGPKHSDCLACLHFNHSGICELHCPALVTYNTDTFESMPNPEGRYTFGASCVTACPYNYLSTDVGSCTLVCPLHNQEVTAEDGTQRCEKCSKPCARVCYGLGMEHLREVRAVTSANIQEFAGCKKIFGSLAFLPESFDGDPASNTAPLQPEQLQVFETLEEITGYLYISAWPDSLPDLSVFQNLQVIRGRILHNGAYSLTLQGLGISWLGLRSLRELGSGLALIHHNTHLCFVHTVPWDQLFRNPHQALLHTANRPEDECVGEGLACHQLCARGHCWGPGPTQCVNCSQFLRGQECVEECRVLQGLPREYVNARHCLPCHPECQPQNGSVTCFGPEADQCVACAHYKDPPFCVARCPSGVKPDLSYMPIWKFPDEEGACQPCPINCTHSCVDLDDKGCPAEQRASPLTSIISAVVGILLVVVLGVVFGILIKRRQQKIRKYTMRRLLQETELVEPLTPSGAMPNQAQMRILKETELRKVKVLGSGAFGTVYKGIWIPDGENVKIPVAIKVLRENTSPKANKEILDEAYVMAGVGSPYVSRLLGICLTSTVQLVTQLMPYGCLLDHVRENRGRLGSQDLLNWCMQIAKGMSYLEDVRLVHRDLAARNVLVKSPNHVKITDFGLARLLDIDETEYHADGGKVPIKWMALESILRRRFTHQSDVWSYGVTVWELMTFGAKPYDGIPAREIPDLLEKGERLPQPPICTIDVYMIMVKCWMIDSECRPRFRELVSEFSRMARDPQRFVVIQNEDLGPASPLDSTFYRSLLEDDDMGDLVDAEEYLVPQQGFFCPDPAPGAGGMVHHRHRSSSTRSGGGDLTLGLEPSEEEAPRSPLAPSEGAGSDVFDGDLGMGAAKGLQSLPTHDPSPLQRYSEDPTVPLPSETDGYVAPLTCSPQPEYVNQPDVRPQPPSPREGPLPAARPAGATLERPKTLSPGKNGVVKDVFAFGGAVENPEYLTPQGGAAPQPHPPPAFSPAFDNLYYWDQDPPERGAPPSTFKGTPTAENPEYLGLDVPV

SMILES	IC50 (SK-MEL-28 tumor cells) [nM]	IC50 (Colo205 tumor cells) [nM]	IC50 (B-Raf) [nM]	IC50 (ErbB2) [nM]	IC50 (EGFR) [nM]
COc1cc(CCN2CCCCC2)c(F)cc1Nc1nccc(-c2sc(C(C)C)nc2-c2cccc(NS(=O)(=O)c3c(F)cccc3F)c2)n1 [Example 156]	100 to 1000	100 to 1000	< 100	100 to 1000	100 to 1000
COc1ccc(S(C)(=O)=O)cc1Nc1nccc(-c2sc(C(C)C)nc2-c2cccc(NS(=O)(=O)c3c(F)cccc3F)c2F)n1 [Example 165]	< 100	< 100	< 100	100 to 1000	100 to 1000
CC(C)c1nc(-c2cccc(NS(=O)(=O)c3c(F)cccc3F)c2)c(-c2ccnc(Nc3cnc(N4CCOCC4)cc3O)n2)s1 [Example 139]	100 to 1000	100 to 1000	< 100	> 1000	> 1000
O=S(=O)(Nc1cc(-c2nc(N3CCCC3)oc2-c2ccnc(Nc3ccc(N4CCOCC4)c(F)c3)n2)ccc1F)c1ccccc1F [Example 59]	100 to 1000	100 to 1000	< 100	> 1000	> 1000
CC(C)c1nc(-c2cccc(NS(=O)(=O)c3c(F)cccc3F)c2)c(-c2ccnc(Nc3ccc(N4CCN(CCS(C)(=O)=O)CC4)cc3C(F)(F)F)n2)s1 [Example 176]	< 100	< 100	< 100	> 1000	> 1000
CC(C)c1nc(-c2ccc(F)c(NS(=O)(=O)c3c(F)cccc3F)c2)c(-c2ccnc(Nc3ccncn3)n2)s1 [Example 148]	100 to 1000	100 to 1000	100 to 1000	> 1000	> 1000
CC(C)c1nc(-c2cccc(NS(=O)(=O)c3cccc(OC(F)F)c3)c2)c(-c2ccnc(Nc3ccc(N4CCOCC4)nc3)n2)s1 [Example 141]	100 to 1000	100 to 1000	100 to 1000	100 to 1000	> 1000
CC(C)c1nc(-c2cccc(NS(=O)(=O)c3cn(C)nc3C(F)(F)F)c2)c(-c2ccnc(Nc3ccc(N4CCOCC4)nc3)n2)s1 [Example 40]	> 1000	> 1000	100 to 1000	> 1000	> 1000
COc1cc2c(cc1Nc1nccc(-c3sc(C(C)C)nc3-c3cccc(NS(=O)(=O)c4c(F)cccc4F)c3)n1)N(C(=O)CN(C)C)CC2 [Example 118]	> 1000	> 1000	100 to 1000	100 to 1000	100 to 1000
COc1ccc(Nc2nccc(-c3sc(C(C)C)nc3-c3cccc(NS(=O)(=O)Cc4ccccc4)c3)n2)cc1N1CCN(CCS(C)(=O)=O)CC1 [Example 37]	> 1000	> 1000	100 to 1000	< 100	< 100
COc1cc(N2CCC3(CC2)CCN(S(C)(=O)=O)CC3)c(C)cc1Nc1nccc(-c2sc(C(C)C)nc2-c2cccc(NS(=O)(=O)c3c(F)cccc3F)c2F)n1 [Example 160]	100 to 1000	< 100	< 100	100 to 1000	100 to 1000
COc1ccc(S(C)(=O)=O)cc1Nc1nccc(-c2sc(C(C)C)nc2-c2cccc(NS(=O)(=O)c3c(F)cccc3F)n2)n1 [Example 172]	> 1000	> 1000	< 100	< 100	100 to 1000
COc1cc(N2CCN(CCS(C)(=O)=O)CC2)c(C)cc1Nc1nccc(-c2sc(C(C)C)nc2-c2cc(NS(=O)(=O)c3c(F)cccc3F)ccc2F)n1 [Example 144]	100 to 1000	100 to 1000	100 to 1000	< 100	100 to 1000
COc1cc(N2CCN(CCS(C)(=O)=O)CC2)c(C)cc1Nc1nccc(-c2sc(C(C)C)nc2-c2cccc(NS(=O)(=O)c3cnn(C)c3)c2)n1 [Example 173]	100 to 1000	100 to 1000	100 to 1000	100 to 1000	> 1000
COc1cc(N2CCN(CCS(C)(=O)=O)CC2)c(C)cc1Nc1nccc(-c2sc(C(C)C)nc2-c2cccc(NS(=O)(=O)c3ccco3)c2)n1 [Example 55]	100 to 1000	< 100	< 100	< 100	< 100
COc1cc(N2CCN(CCS(C)(=O)=O)CC2)c(C)cc1Nc1nccc(-c2sc(C(C)C)nc2-c2cccc(NS(=O)(=O)c3c(F)cccc3F)n2)n1 [Example 45]	100 to 1000	100 to 1000	100 to 1000	< 100	< 100
